Tests used:
[1] = system: SDF-1α induced human monocyte migration; assay: Human monocyte migration, SDF-1α induced; type: cell-based; settings: Table 4(c); 100 μM peptide; n.s. = no statistically significant inhibition
Experimental: (§1) Agents may also be screened in a chemotactic assay which employs human neutrophils, eosinophils, mast cells, basophils, platelets, lymphocytes or monocytes. For monocytes, 9 mls of fresh blood are transferred to a tube containing 1 ml of 3.8% sodium citrate, and left at room temperature for 15 minutes. Five mls of this anti-coagulated blood are carefully layered over 3.5 ml Polymorphprep® (Nycomed Pharma, Oslo), and centrifuged at 500 g for 35 minutes per the manufacturer's instructions. The top band at the sample/medium interface contains monocytes. The monocytes are carefully removed with a glass pipette, and reconstituted to the original volume (5 ml). The cells are washed with PBS plus 10% fetal calf serum, and centrifuged at 400 g for 10 minutes. The washing step is repeated three times before the cells are counted. Cells are resuspended at 1×10^7 cells/ml in RPMI-1640+10% fetal calf serum (FCS). The monocytes are cultured for two days at 37° C. in a humidified atmosphere of 5% CO2.
(§2) On day 2, the cells are counted, spun down, and reconstituted to 1×10^7 cells/ml in Gey's balanced salt solution+1 mg/ml bovine serum albumin (BSA). […]

[2] = system: TGFβ1 induced human monocyte migration; assay: Human monocyte migration, TGFβ1 induced; type: cell-based
Experimental: as §1, §2

[3] = system: chemokine-induced migration of peripheral blood monocytes; assay: Chemokine-induced migration of freshly prepared peripheral blood monocytes, each of the four chemokines; type: cell-based, human; settings: 100 μM; peripheral blood monocytes from 3 donors
Experimental: as §1, §2

[4] = target: T1, Duffy Antigen Receptor for Chemokines (DARC) (Homo sapiens, UniProt Q16570); assay: DARC binding: competition with 125I-labeled MCP-1 on red blood cells
T1 sequence (Q16570 1-336): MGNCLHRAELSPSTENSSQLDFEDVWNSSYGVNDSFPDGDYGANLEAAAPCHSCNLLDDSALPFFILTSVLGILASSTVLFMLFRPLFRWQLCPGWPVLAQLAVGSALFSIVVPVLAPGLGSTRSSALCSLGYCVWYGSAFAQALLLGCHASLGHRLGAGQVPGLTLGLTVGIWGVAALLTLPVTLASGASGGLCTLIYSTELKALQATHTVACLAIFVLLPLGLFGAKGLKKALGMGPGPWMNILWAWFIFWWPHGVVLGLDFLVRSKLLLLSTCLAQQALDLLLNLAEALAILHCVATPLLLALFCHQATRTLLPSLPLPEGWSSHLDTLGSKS

Sequence: EICADPKQKWVQ [Peptide 3]
- Extent of inhibition of human monocyte migration at 100 μM, SDF-1α [1]: 108%
- effect on TGF-beta induced monocyte migration ([2]; 100 μM): did not affect
- Extent of inhibition of human monocyte migration at 100 μM, TGFβ1 ([2]; Table 4(c), 100 μM peptide, n.s. = no statistically significant inhibition): n.s.
- inhibition of monocyte migration induced with each of the four chemokines [3]: > 95%
- DARC binding, in words [4]: low μM concentration range
- DUFFY SELECTIVITY ([4]; Table 7, estimated ka for binding to red blood cells divided by average inhibitory ED50 versus each of the chemokines): 1.00
